The record followed here is patent publication US20260265233A1, “BENZOTHIOPHENE DERIVATIVES AS RXFP1 AGONISTS” (BRISTOL-MYERS SQUIBB COMPANY, priority 2021, published 2026).

The term EC50 denotes the midpoint of the concentration-response curve. Low readings indicate an effect from little substance, high ones a need for much substance.

This assay has as its target T1, human RXFP1 (Homo sapiens, UniProt Q9HBX9).
T1 construct: expressed in transfected cells
T1 sequence (Q9HBX9 1-757): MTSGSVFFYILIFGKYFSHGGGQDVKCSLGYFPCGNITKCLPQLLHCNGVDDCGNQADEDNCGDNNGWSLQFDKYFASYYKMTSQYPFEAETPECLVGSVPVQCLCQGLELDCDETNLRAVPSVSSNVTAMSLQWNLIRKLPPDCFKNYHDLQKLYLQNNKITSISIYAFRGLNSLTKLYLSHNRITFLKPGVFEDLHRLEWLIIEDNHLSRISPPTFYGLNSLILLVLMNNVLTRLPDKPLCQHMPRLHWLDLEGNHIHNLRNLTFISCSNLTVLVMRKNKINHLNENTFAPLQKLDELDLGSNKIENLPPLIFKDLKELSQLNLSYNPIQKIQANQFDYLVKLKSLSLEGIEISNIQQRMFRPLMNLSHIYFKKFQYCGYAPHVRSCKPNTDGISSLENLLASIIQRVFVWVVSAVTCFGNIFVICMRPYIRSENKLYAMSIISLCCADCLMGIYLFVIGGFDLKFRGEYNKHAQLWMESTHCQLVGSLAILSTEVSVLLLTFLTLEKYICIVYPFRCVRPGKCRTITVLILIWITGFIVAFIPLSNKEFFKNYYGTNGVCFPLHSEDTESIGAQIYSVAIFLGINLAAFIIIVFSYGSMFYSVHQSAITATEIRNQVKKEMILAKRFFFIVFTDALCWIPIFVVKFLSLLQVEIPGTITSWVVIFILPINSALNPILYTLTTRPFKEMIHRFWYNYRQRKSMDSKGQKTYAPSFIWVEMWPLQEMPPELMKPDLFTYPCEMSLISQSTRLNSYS
The experiment in a line: hRXFP1 HEK293 cAMP assay (HTRF). The assay is classed as cell-based. The note with it: HEK293 cells stably expressing human RXFP1; 30 min at rt; intracellular cAMP by HTRF. The method, boiled down:
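Agonism is measured as cAMP by HTRF, quantified from a standard curve via the 665/590 nm ratio and fitted with a four-parameter logistic equation. Compounds (0.010 nM to 50 μM final, 2% DMSO) were applied for 30 min at rt to human RXFP1-expressing HEK293 cells in assay buffer containing 0.5 mM IBMX.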
`COc1ccc(C2CC2C(C)(C)O)cc1C(=O)Nc1c(C(=O)Nc2ccc(F)c(C(F)(F)F)c2)sc2cc(C(F)(F)F)ccc12` (single isomer, unassigned) [Example 160, N-[4-fluoro-3-(trifluoromethyl)phenyl]-3-{5-[2-(2-hydroxypropan-2-yl)cyclopropyl]-2-methoxy-benzamido}-6-(trifluoromethyl)-1-benzothiophene-2-carboxamide] displayed an EC50 of 2300 nM.

The molecule `COc1ccc(C2CCN(CC(N)=O)C2)cc1C(=O)Nc1c(C(=O)Nc2ccc(F)c(C(F)(F)F)c2)sc2cc(C(F)(F)F)ccc12` (stereo not shown) [Example 156, 3-(5-(1-(2-amino-2-oxoethyl)pyrrolidin-3-yl)-2-methoxy-benzamido)-N-(4-fluoro-3-(trifluoromethyl)phenyl)-6-(trifluoromethyl) benzo[b] thiophene-2-carboxamide] had an EC50 of 2180 nM.

`COc1ccc(C2CCCN(CC(O)CO)C2)cc1C(=O)Nc1c(C(=O)Nc2ccc(F)c(C(F)(F)F)c2)sc2cc(C(F)(F)F)ccc12` (stereo not shown) [Example 88, 3-(5-(1-(2,3-dihydroxypropyl)piperidin-3-yl)-2-methoxy-benzamido)-N-(4-fluoro-3-(trifluoromethyl)phenyl)-6-(trifluoromethyl) benzo[b] thiophene-2-carboxamide] yielded a concentration for a half-maximal effect (EC50) of 1540 nM.

`COc1ccc(C2CCN(C(=O)C(F)F)C2)cc1C(=O)Nc1c(C(=O)Nc2ccc(F)c(C(F)(F)F)c2)sc2cc(C(F)(F)F)ccc12` (stereo not shown) [Example 145, 3-(5-(1-(2,2-difluoroacetyl)pyrrolidin-3-yl)-2-methoxy-benzamido)-N-(4-fluoro-3-(trifluoromethyl)phenyl)-6-(trifluoromethyl) benzo[b] thiophene-2-carboxamide] yielded an EC50 of 1650 nM.

As to “(R)-6-chloro- N-(4-fluoro-3- (trifluoromethyl) phenyl)-3-(5- (2- (hydroxymethyl) morpholine- 4-carbonyl)-2- methoxy- benzamido) thieno[3, 2-c]pyridine-2- carboxamide [Example 239]”, the EC50 was 2100 nM.

`COc1ccc(C2CC2C(C)(C)O)cc1C(=O)Nc1c(C(=O)Nc2ccc(F)c(C(F)(F)F)c2)sc2cc(C(F)(F)F)ccc12` (single isomer, unassigned) [Example 161, N-[4-fluoro-3-(trifluoromethyl)phenyl]-3-{5-[2-(2-hydroxypropan-2-yl)cyclopropyl]-2-methoxy-benzamido}-6-(trifluoromethyl)-1-benzothiophene-2-carboxamide]: the response was half-maximal at 4940 nM (EC50).

In turn, `COc1ccc(N2CCCC(C(=O)O)C2)cc1C(=O)Nc1c(C(=O)Nc2ccc(F)c(C(F)(F)F)c2)sc2cc(C(F)(F)F)ccc12` (single isomer, unassigned) [Example 5, 1-(3-((2-((4-fluoro-3-(trifluoromethyl)phenyl)carbamoyl)-6-(trifluoromethyl)benzo[b]thiophen-3-yl)carbamoyl)-4-methoxyphenyl) piperidine-3-carboxylic acid] gave an EC50 of 150 nM.

`COc1ccc(N2CCC(NCCS(C)(=O)=O)C2)cc1C(=O)Nc1c(C(=O)Nc2ccc(F)c(C(F)(F)F)c2)sc2cc(C(F)(F)F)ccc12` (stereo not shown) [Example 68, N-(4-fluoro-3-(trifluoromethyl)phenyl)-3-(2-methoxy-5-(3-((2-(methylsulfonyl)ethyl)amino)pyrrolidin-1-yl)benzamido)-6-(trifluoromethyl) benzo[b] thiophene-2-carboxamide]: the EC50 came to 1080 nM.

On to `COc1ccc(N2CCCC(NCC(N)=O)C2)cc1C(=O)Nc1c(C(=O)Nc2ccc(F)c(C(F)(F)F)c2)sc2cc(C(F)(F)F)ccc12` (stereo in doubt) [Example 210, (S)-3-(5-(3-((2-amino-2-oxoethyl)amino)piperidin-1-yl)-2-methoxy-benzamido)-N-(4-fluoro-3-(trifluoromethyl)phenyl)-6-(trifluoromethyl) benzo[b] thiophene-2-carboxamide], for which the EC50 was determined as 1930 nM.

`COc1ccc(-c2cc(CNS(C)(=O)=O)ccc2F)cc1C(=O)Nc1c(C(=O)Nc2ccc(F)c(C(F)(F)F)c2)sc2cc(C(F)(F)F)ccc12` [Example 17, N-(4-fluoro-3-(trifluoromethyl)phenyl)-3-(2′-fluoro-4-methoxy-5′-(methylsulfonamidomethyl)-[1,1′-biphenyl]-3-carboxamido)-6-(trifluoromethyl)benzo[b]thiophene-2-carboxamide] came in with an EC50 of 10.3 nM.

`COc1ccc(C2CCC(O)CC2)cc1C(=O)Nc1c(C(=O)Nc2ccc(F)c(C(F)(F)F)c2)sc2cc(C(F)(F)F)ccc12` (single isomer, unassigned) [Example 75, N-(4-fluoro-3-(trifluoromethyl)phenyl)-3-(5-(4-hydroxycyclo-hexyl)-2-methoxy-benzamido)-6-(trifluoromethyl) benzo[b] thiophene-2-carboxamide]: the EC50 turned out to be 420 nM.

Molecule `COc1ccc(C2CCCC(NC3COC3)C2)cc1C(=O)Nc1c(C(=O)Nc2ccc(F)c(C(F)(F)F)c2)sc2cc(C(F)(F)F)ccc12` (single isomer, unassigned) [Example 62, N-(4-fluoro-3-(trifluoromethyl)phenyl)-3-(2-methoxy-5-(3-(oxetan-3-ylamino)cyclohexyl)benzamido)-6-(trifluoromethyl) benzo[b] thiophene-2-carboxamide] registered an EC50 of 1460 nM.

On to `COc1ccc(C2=NOC3CC(NC(=O)CO)CC23)cc1C(=O)Nc1c(C(=O)Nc2ccc(F)c(C(F)(F)F)c2)sc2cc(C(F)(F)F)ccc12` (single isomer, unassigned) [Example 266, N-[4-fluoro-3-(trifluoromethyl)phenyl]-3-{5-[5-(2-hydroxyacetamido)-3aH,4H,5H,6H, 6aH-cyclopenta[d] [1,2]oxazol-3-yl]-2-methoxy-benzamido}-6-(trifluoromethyl)-1-benzothiophene-2-carboxamide], for which the EC50 was found to be 2410 nM.

`COc1ccc(-c2cnn(C)c2C(=O)O)cc1C(=O)Nc1c(C(=O)Nc2ccc(F)c(C(F)(F)F)c2)sc2cc(C(F)(F)F)ccc12` [Example 212, 4-(3-((2-((4-fluoro-3-(trifluoromethyl)phenyl)carbamoyl)-6-(trifluoromethyl)benzo[b]thiophen-3-yl)carbamoyl)-4-methoxyphenyl)-1-methyl-1H-pyrazole-5-carboxylic acid] had an EC50 of 3330 nM.

Molecule `COc1ccc(N2CCCC(C(=O)O)C2)cc1C(=O)Nc1c(C(=O)Nc2ccc(F)c(C(F)(F)F)c2)sc2cc(C(F)(F)F)ccc12` (single isomer, unassigned) [Example 4, 1-(3-((2-((4-fluoro-3-(trifluoromethyl)phenyl)carbamoyl)-6-(trifluoromethyl)benzo[b]thiophen-3-yl)carbamoyl)-4-methoxyphenyl) piperidine-3-carboxylic acid] registered an EC50 of 375 nM.

Take `COc1ccc(-c2cnc(C3(O)CCS(=O)(=O)C3)nc2)cc1C(=O)Nc1c(C(=O)Nc2ccc(F)c(C(F)(F)F)c2)sc2cc(C(F)(F)F)ccc12` (single isomer, unassigned) [Example 24, N-(4-fluoro-3-(trifluoromethyl)phenyl)-3-(5-(2-(3-hydroxy-1,1-dioxidotetrahydrothiophen-3-yl)pyrimidin-5-yl)-2-methoxybenzamido)-6-(trifluoromethyl)benzo[b]thiophene-2-carboxamide]: the response was half-maximal at 3360 nM (EC50).
